From ChEMBL document CHEMBL1201862, “PubChem BioAssay data set” (2004)
Blank lines part the entries; values can stand above or below the compound they belong to. Activity calls are given as the source filed them.

Legend:
[1] = biological target: T1, Intestinal-type alkaline phosphatase (Homo sapiens, UniProt P09923); assay: human IAP inhibitors, dose response, biochemical, luminescent, uHTS hits, set 2 (AID 488793); format: functional
[2] = biological target: T2, Leucine aminopeptidase (Plasmodium falciparum 3D7, UniProt Q8IL11); assay: P. falciparum M17LAP inhibitors, primary screen, biochemical, fluorogenic H-Leu-NHMec substrate, 1536-well (AID 1619); format: functional
T2 sequence (Q8IL11 whole entry): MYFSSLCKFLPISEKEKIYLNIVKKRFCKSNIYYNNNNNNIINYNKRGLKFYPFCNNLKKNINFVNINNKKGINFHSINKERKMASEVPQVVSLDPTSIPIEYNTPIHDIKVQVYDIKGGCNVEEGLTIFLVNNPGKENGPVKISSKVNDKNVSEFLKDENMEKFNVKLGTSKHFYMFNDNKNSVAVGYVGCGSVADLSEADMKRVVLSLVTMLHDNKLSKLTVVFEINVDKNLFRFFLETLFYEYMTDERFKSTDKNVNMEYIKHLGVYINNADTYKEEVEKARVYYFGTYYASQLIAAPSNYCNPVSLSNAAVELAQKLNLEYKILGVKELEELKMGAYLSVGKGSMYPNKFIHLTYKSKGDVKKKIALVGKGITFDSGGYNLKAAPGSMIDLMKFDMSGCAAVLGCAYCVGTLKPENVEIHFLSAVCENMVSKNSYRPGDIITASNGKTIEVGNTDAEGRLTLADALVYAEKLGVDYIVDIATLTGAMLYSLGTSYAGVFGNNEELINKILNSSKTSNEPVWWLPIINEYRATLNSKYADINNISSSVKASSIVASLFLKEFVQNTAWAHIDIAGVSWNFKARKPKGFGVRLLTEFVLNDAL

[3] = biological target: T3, Alkaline phosphatase, tissue-nonspecific isozyme (Homo sapiens, UniProt P05186); assay: inhibition of tissue-nonspecific alkaline phosphatase – biochemical, dose response (AID 488882); format: functional
T3 sequence (P05186 whole entry): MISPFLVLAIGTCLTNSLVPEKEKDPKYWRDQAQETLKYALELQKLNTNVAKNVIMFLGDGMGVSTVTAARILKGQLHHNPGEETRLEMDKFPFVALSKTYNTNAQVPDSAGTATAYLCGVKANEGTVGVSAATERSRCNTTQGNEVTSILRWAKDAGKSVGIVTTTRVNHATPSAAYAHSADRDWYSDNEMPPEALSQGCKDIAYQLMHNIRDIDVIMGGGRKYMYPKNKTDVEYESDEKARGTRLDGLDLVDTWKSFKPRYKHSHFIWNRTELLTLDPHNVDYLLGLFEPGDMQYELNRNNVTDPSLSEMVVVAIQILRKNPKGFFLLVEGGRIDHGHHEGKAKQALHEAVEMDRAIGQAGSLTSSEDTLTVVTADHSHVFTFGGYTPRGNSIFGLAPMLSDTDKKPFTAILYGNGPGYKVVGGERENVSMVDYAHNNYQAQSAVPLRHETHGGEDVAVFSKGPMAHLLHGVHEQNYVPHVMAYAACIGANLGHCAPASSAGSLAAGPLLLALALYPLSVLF

[4] = biological target: Large T antigen (Simian virus 40, UniProt P03070); format: functional, Betapolyomavirus macacae;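 note: Confirmatory-stage PubChem screen for compounds that inhibit SV40 T antigen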
Chain of Large T antigen (P03070 whole entry): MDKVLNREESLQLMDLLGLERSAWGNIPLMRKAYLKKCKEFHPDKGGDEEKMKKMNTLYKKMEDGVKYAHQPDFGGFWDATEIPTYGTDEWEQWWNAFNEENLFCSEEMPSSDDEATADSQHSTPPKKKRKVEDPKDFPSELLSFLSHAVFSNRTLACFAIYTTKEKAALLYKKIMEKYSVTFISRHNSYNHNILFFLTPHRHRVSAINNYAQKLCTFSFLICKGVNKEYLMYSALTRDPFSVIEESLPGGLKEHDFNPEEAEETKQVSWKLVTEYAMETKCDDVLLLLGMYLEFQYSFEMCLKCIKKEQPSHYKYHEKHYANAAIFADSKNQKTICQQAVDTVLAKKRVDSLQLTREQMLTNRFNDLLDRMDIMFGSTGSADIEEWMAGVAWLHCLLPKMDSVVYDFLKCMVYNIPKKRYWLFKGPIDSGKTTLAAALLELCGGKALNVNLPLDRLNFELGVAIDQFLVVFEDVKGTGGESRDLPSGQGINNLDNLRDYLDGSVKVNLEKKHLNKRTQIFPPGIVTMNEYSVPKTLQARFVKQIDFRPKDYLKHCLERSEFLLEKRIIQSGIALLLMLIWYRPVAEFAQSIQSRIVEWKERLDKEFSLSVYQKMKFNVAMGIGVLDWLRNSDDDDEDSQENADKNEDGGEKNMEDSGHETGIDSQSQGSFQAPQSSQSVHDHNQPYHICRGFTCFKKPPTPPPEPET

[5] = biological target: T1, Intestinal-type alkaline phosphatase; assay: Dose Response confirmation of uHTS hits from a small molecule inhibitors of human intestinal alkaline phosphatase via a luminescent assay. [Related pubchem assays (depositor defined):AID2544, AID2574]; format: functional
[6] = biological target: T4, Intestinal-type alkaline phosphatase (Mus musculus, UniProt P24822); assay: PubChem AID 488874; format: functional
T4 sequence (P24822 whole entry, the tested form may be a part): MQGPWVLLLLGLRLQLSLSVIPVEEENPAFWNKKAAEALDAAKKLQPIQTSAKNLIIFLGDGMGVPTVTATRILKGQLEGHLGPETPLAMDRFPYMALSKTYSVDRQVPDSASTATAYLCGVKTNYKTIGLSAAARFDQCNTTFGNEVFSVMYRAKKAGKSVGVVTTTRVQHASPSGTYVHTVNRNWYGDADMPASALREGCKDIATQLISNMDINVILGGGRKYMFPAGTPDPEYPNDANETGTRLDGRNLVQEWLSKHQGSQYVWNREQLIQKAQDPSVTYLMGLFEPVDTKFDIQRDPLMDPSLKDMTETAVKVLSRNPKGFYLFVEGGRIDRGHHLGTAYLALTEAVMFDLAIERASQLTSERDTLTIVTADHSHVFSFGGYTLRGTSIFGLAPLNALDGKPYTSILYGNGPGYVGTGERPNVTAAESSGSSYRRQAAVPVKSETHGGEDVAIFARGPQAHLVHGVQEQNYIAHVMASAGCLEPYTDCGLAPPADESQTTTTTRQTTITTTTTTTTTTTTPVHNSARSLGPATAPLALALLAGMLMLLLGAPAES

[7] = biological target: T5, Nucleotide-binding oligomerization domain-containing protein 1 (Homo sapiens, UniProt Q9Y239); assay: SAR analysis of compounds that inhibit NOD1 - Set 3. [Related pubchem assays (depositor defined):AID1566, AID1575, AID1578, AID1849, AID1852, AID2333, AID2335, AID2466]; format: functional
T5 sequence (Q9Y239 whole entry): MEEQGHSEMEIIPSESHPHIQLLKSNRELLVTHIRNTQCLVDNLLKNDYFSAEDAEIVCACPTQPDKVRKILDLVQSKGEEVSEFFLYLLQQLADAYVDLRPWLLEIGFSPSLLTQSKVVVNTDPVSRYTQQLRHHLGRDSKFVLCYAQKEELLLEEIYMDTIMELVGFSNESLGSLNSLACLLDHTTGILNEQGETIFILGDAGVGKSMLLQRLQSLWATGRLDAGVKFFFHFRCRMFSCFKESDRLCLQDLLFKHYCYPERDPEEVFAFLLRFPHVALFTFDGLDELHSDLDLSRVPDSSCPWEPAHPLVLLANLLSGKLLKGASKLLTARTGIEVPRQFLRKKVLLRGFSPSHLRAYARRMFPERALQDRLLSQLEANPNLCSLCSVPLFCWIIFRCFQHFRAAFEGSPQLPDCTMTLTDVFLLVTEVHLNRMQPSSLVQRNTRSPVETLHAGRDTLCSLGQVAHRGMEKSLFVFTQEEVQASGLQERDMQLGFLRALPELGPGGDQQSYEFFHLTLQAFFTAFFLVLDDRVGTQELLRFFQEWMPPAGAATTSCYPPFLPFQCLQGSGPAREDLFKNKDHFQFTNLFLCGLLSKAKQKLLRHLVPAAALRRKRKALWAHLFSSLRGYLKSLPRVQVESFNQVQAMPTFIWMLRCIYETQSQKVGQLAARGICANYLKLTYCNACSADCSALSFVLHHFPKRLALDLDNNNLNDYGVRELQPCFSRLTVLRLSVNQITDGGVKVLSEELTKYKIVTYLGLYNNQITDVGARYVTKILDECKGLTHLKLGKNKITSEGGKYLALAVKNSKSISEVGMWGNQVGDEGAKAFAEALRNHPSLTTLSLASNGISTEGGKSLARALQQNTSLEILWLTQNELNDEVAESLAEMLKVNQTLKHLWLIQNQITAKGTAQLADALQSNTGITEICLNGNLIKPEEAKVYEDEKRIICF

[8] = test system: HEK293; assay: SAR analysis of compounds that are cytotoxic to HEK293 - Set 3. [Related pubchem assays (depositor defined):AID1575, AID1578, AID1848, AID1849, AID2001, AID2333, AID2334, AID2335, AID2337, AID2469]; format: functional, cell-based; conditions: Homo sapiens
[9] = biological target: T6, Tumor necrosis factor (Homo sapiens, UniProt P01375); assay: TNFa-triggered NF-kB activation inhibitors, SAR follow-up, cell-based, revised (AID 2337); format: functional
T6 sequence (P01375 whole entry): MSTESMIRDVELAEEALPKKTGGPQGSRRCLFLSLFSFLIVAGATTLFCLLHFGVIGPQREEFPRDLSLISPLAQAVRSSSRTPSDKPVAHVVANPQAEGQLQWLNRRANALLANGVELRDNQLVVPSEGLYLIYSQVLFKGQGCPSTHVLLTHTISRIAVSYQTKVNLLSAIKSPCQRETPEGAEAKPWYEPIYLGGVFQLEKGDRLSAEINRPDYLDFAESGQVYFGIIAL

[10] = biological target: T6, Tumor necrosis factor; assay: TNFa-triggered NF-kB activation inhibitors, SAR follow-up, cell-based, set 3 (AID 2801); format: functional
[11] = biological target: Nucleotide-binding oligomerization domain-containing protein 2 (Homo sapiens, UniProt Q9HC29); assay: NOD2 signaling inhibitors, analog potency, SAR follow-up, cell-based, set 3 (AID 2799); format: functional
Chain of Nucleotide-binding oligomerization domain-containing protein 2 (Q9HC29 whole entry, the tested form may be a part): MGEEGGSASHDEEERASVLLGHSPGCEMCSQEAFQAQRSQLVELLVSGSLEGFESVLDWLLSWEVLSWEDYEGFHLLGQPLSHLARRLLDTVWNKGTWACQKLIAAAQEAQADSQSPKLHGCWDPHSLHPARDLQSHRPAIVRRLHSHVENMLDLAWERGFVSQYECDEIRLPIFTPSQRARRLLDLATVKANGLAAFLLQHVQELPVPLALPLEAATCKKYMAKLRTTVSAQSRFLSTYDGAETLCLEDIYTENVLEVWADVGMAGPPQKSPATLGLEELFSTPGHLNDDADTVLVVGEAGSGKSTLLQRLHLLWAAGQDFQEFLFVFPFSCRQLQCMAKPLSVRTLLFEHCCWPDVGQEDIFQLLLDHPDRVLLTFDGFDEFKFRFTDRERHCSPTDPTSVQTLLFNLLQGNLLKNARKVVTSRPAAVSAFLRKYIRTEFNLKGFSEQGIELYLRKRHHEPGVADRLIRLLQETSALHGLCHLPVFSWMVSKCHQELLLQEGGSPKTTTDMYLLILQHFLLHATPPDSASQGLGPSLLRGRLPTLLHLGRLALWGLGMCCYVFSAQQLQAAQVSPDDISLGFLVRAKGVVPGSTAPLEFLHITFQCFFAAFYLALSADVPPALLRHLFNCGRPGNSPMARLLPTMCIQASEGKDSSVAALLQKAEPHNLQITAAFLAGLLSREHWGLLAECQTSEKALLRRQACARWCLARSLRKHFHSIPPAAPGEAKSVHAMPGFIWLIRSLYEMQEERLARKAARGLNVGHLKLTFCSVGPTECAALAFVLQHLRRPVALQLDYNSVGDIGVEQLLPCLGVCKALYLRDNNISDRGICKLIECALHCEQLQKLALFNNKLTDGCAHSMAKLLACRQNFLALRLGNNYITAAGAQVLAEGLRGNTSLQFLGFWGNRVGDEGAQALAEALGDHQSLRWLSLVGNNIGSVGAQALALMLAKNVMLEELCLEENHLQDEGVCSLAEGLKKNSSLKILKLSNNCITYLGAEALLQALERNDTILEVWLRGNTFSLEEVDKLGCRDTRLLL

[12] = test system: HEK293; assay: cells; conditions: Homo sapiens
[13] = biological target: T1, Intestinal-type alkaline phosphatase; assay: activation of human intestinal alkaline phosphatase – biochemical, dose response (AID 488873); format: functional
[14] = biological target: T4, Intestinal-type alkaline phosphatase; assay: mouse intestinal alkaline phosphatase activators, dose response, biochemical, luminescence, uHTS hits (AID 488783); format: functional
[15] = biological target: T3, Alkaline phosphatase, tissue-nonspecific isozyme; assay: TNAP enzyme activators, dose response, selectivity assay for mouse IAP activator project, biochemical, TNAP isozyme, mouse IAP uHTS hits (AID 488880); format: functional

T1 sequence (P09923 whole entry): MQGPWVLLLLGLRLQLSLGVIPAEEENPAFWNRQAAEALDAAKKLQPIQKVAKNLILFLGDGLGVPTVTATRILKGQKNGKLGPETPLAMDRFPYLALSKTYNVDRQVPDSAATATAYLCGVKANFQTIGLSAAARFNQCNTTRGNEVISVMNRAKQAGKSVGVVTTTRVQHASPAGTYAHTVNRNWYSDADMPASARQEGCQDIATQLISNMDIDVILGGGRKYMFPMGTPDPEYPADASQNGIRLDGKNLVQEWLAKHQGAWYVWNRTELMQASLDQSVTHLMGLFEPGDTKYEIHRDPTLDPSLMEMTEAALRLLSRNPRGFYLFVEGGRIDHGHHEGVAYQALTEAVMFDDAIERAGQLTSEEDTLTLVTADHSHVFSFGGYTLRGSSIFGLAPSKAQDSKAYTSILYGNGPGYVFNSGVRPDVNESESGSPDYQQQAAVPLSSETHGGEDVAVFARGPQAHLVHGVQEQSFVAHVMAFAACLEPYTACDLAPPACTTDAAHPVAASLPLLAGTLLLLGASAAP

- IC50 [1]: 0.891 µM (active)
- IC50 [2]: 48.2 µM (active)
- IC50 [3]: > 100 µM (inactive)
- IC50 [4]: 9.8 µM (active)
- IC50 [5]: 3.15 µM (active)
- IC50 [6]: 3.29 µM (active)
Compound: O=C(O)C1OC(Oc2c(-c3ccc(O)c(O)c3)oc3cc(O)cc(O)c3c2=O)C(O)C(O)C1O (stereo not given)

Compound: Nc1cc(NC(=O)c2ccc3ccccc3c2O)ccc1Cl
- IC50 [7]: > 20 µM (inactive)
- IC50 [8]: > 20 µM (inactive)
- IC50 [9]: > 20 µM (inactive)
- IC50 [10]: > 20 µM (inactive)
- IC50 [11]: > 20 µM (inactive)
- IC50 [12]: > 20 µM (inactive)

- EC50 [13]: 50.4 µM (active)
- EC50 [14]: 54.1 µM (active)
- EC50 [15]: 81.8 µM (active)
Compound: O=C1CC(c2ccc(O)c(O)c2)Oc2cc(O)cc(O)c21 (stereo not given)
